Data as given in patent US9545393B2, “Methods and compositions for treating pain” (The Board of Trustees of the Leland Stanford Junior …, priority 2012, dated 2017).

Tested on: rats subjected to carrageenan insult to the right hind paw
Assay: Randall-Selitto paw pressure test, carrageenan-induced hyperalgesia in rats
Type: in vivo, rat
Details: naloxone 1 mg/kg s.c., with or without Alda-1; carrageenan rats
Description: Rats. Male Wistar rats (170-190 g) were provided by Charles River Laboratories or Butantan Institute Animal Facility and housed in a temperature-controlled (22±1° C.) and light-controlled (12/12 h light/dark cycle) room. All rats were housed in their surrounding for at least 3 days. Groups of 5-6 rats were used.
Drugs Used. 0.1 ml saline (control), carrageenan (200 μg for rats, 100 μg for mice; Marine Colloids), or prostaglandin E2 (100 ng, Sigma) was administered by intraplantar injection into the right hind paw to induce hyperalgesia. These doses were chosen based on previous studies by our laboratory groups (Aley K O, et al., (2000) Chronic hypersensitivity for inflammatory nociceptor sensitization mediated by the epsilon isozyme of protein kinase C. The Journal of neuroscience: the official journal of the Society for Neuroscience 20: 4680-4685; Konno K, et al., (2008) Crotalphine, a novel potent analgesic peptide from the venom of the South American rattlesnake Crotalus durissus terrificus. Peptides 29: 1293-1304).
Alda-1 dose (2 mg/kg/per injection, dissolved in 50% PEG/50% DMSO) was established in preliminary studies and given in multiple doses due to its estimated short half-life. Alda-1 was injected subcutaneously to the dorsal side of the neck 15 minutes before carrageenan or saline, and again at 30 and 150 minutes after carrageenan, prostaglandin E2 or saline injection. One subset of animals received Alda-1 only 30 and 150 minutes after carrageenan injection. Where indicated, naloxone (1 mg/kg per injection) or vehicle (saline) was given 10 minutes prior to each Alda-1 treatment to the dorsal side of the neck.
Nociception Assessment. The experimental performer was blinded to both genotype and/or treatments. Nociceptive response was assessed by the von Frey method for mice and the Randall-Selitto method for rats immediately before and 180 minutes after carrageenan or prostaglandin E2 injection. Both mice and rats were acclimated to the testing equipment one day before baseline testing.
Randall-Selitto method: Nociceptive threshold was determined using the Randall-Selitto paw pressure test (Ugo-Basile), as previously described (Gutierrez V P, et al., (2008) Crotalphine induces potent antinociception in neuropathic pain by acting at peripheral opioid receptors. European journal of pharmacology 594: 84-92). The baseline values varied between 65-75 g of force. Animals with baseline out of this range (about 10%) were excluded prior to initiating the study in order to achieve uniform testing.

Compound: C=CCN1CC[C@]23c4c5ccc(O)c4O[C@H]2C(=O)CC[C@@]3(O)[C@H]1C5 [Naloxone, reference compound]
- Effect of naloxone on nociceptive threshold: no effect
